Reference: publication PMC9387934, “Randomized single oral dose phase 1 study of safety, tolerability, and pharmacokinetics of Iminosugar UV-4 Hydrochloride (UV-4B) in healthy subjects” (PLoS Neglected Tropical Diseases, 2022)
Structures can show the parent of a compound that is named as a salt. Where two headings read alike, the source gives them in different places.

Assay: Phase 1a single ascending dose study: UV-4 plasma concentrations and PK parameters (LC-MS/MS, noncompartmental)
Type: in vivo
Conditions: for Tmax: median; for AUC(0-t): read-out: AUC(0-8); for Vd/F: read-out: Vz/F
Procedure: UV-4 ((2R,3R,4R,5S)-2-(hydroxymethyl)-1-(9-methoxynonyl)piperidine-3,4,5-triol, also called N-(9’-methoxynonyl)-1-deoxynojirimycin, or MON-DNJ) hydrochloride was evaluated in a first-in-human, randomized, single-center, double-blind, placebo-controlled, parallel group, single ascending dose Phase 1a clinical trial in healthy subjects (Figs 1 and 2, ClinicalTrials.gov Identifier NCT02061358 https://clinicaltrials.gov/ct2/show/NCT02061358). The primary objective was to determine the safety and tolerability of a single-ascending oral dose of UV-4 hydrochloride (Fig 3). […] The secondary objective was to determine PK parameters describing absorption and elimination of UV-4 following a single oral dose of UV-4 hydrochloride. Eight cohorts of eight subjects each were enrolled and completed the study. In each cohort, six subjects received UV-4 as the hydrochloride; two received placebo. Subjects were screened against study eligibility criteria up to four weeks (Days -28 to -2) before admission to the clinic (Day -1). Dosing was performed on an inpatient basis. Subjects remained in clinic for 48 hours post-dosing for PK sample collection and safety assessments and were discharged from the clinic on Day 3. Subjects returned to the clinic on Day 4 for additional safety assessments, then again on Day 9 ± 1 for a final follow-up visit.
Eligible subjects were healthy males and females, age 18–45 years, with a body mass index between 18 and 30 kg/m^2 inclusive and a minimum body weight of 60 kg. Subjects were considered healthy based on medical history, physical exam, vital signs, 12-lead electrocardiogram (ECG), clinical laboratory tests (hematology, blood chemistry, urinalysis), viral serology, and drug and alcohol screening. Male and female subjects of childbearing potential were required to use adequate contraception over the course of the clinical trial. […] Only subjects who met all inclusion and none of the exclusion criteria prior to administration of the investigational product were enrolled into the study (no exemptions were granted). A total of 64 subjects were enrolled (eight cohorts of eight subjects each). In each of the eight cohorts, six subjects were randomized to receive a single dose of UV-4 (3 to 1000 mg, depending on cohort) as the hydrochloride salt, and two subjects to receive placebo. Cohort size of six active subjects was based on analysis that increasing cohort size above six in a first-in-human study gains little in the ability to observe a drug induced event, and results in observing more events that are not related to study drug. Two of the eight subjects in each cohort (sentinel subjects; one active and one placebo) received their doses at least 48 h before the remaining subjects in each cohort.
On each day of use, bulk drug substance (UV-4B for solubilization, SAI Life Sciences Ltd. Telangana, India) was removed from a single-use container, weighed at the study center, and solubilized in 20 mL sterile water for injection (SWFI) (Hospira Inc. Illinois, United States of America). Weight of solid drug substance was converted to dose of UV-4 by applying purity and salt correction factor per pharmacy manual when preparing the dosing solution. UV-4B solution was administered orally with 10 mL of taste-masking agent, OraSweet-SF (Paddock Laboratories LLC, Minneapolis, United States of America) in a total volume of 30 mL, to assist in maintaining study blinding. Placebo was SWFI (20 mL) plus OraSweet-SF (10 mL). Concentrations and doses were calculated and expressed as the active free base form, UV-4. This methodology is consistent with USP<1121>, which recommends that the strength of a drug product or preparation is expressed in terms of the active moiety. Following consumption of active or placebo solution, the dosing container was rinsed with 50 mL of tap water also consumed by subjects. […]

[1] = 3 mg single oral dose, Geo Mean
[2] = 10 mg single oral dose, Ar Mean
[3] = 10 mg single oral dose, Geo Mean
[4] = 30 mg single oral dose, Ar Mean
[5] = 30 mg single oral dose, Geo Mean
[6] = 90 mg single oral dose, Ar Mean
[7] = 90 mg single oral dose, Geo Mean
[8] = 180 mg single oral dose, Ar Mean
[9] = 180 mg single oral dose, Geo Mean
[10] = 360 mg single oral dose, Ar Mean
[11] = 360 mg single oral dose, Geo Mean
[12] = 720 mg single oral dose, Ar Mean
[13] = 720 mg single oral dose, Geo Mean
[14] = 1000 mg single oral dose, Ar Mean
[15] = 1000 mg single oral dose, Geo Mean
[16] = both sexes, human, plasma, po, 3 mg, 3 mg single oral dose, Ar Mean
[17] = both sexes, human, plasma, po, 3 mg, 3 mg single oral dose, Geo Mean
[18] = both sexes, human, plasma, po, 10 mg, 10 mg single oral dose, Ar Mean
[19] = both sexes, human, plasma, po, 10 mg, 10 mg single oral dose, Geo Mean
[20] = both sexes, human, plasma, po, 30 mg, 30 mg single oral dose, Ar Mean
[21] = both sexes, human, plasma, po, 30 mg, 30 mg single oral dose, Geo Mean
[22] = both sexes, human, plasma, po, 90 mg, 90 mg single oral dose, Ar Mean
[23] = both sexes, human, plasma, po, 90 mg, 90 mg single oral dose, Geo Mean
[24] = both sexes, human, plasma, po, 180 mg, 180 mg single oral dose, Ar Mean
[25] = both sexes, human, plasma, po, 180 mg, 180 mg single oral dose, Geo Mean
[26] = both sexes, human, plasma, po, 360 mg, 360 mg single oral dose, Ar Mean
[27] = both sexes, human, plasma, po, 360 mg, 360 mg single oral dose, Geo Mean
[28] = both sexes, human, plasma, po, 720 mg, 720 mg single oral dose, Ar Mean
[29] = both sexes, human, plasma, po, 720 mg, 720 mg single oral dose, Geo Mean
[30] = both sexes, human, plasma, po, 1000 mg, 1000 mg single oral dose, Ar Mean
[31] = both sexes, human, plasma, po, 1000 mg, 1000 mg single oral dose, Geo Mean

## COCCCCCCCCCN1C[C@H](O)[C@@H](O)[C@H](O)[C@H]1CO [UV-4B, N-(9’-methoxynonyl)-1-deoxynojirimycin hydrochloride]
3 mg single oral dose, Ar Mean
  AUC(0-inf): 95.6 ng·h/mL
  CL/F: 32.1 L/h
  Cmax: 22.4 ng/mL
  DNAUC(0-inf): 31.9 ng·h/mL/mg
  DNCmax: 7.45 ng/mL/mg
  t1/2: 10.7 h
[1]
  CL/F: 31.7 L/h
  Cmax: 22.1 ng/mL
  DNAUC(0-inf): 31.5 ng·h/mL/mg
  DNCmax: 7.38 ng/mL/mg
  t1/2: 10.3 h
3 mg single oral dose
  Tmax: 0.50 h
[2]
  CL/F: 24.3 L/h
  Cmax: 84.6 ng/mL
  DNAUC(0-inf): 43.1 ng·h/mL/mg
  DNCmax: 8.46 ng/mL/mg
  t1/2: 12.0 h
[3]
  CL/F: 23.8 L/h
  Cmax: 82.6 ng/mL
  DNAUC(0-inf): 42.0 ng·h/mL/mg
  DNCmax: 8.26 ng/mL/mg
  t1/2: 11.9 h
10 mg single oral dose
  Tmax: 1.00 h
[4]
  CL/F: 24.0 L/h
  Cmax: 293 ng/mL
  DNAUC(0-inf): 42.0 ng·h/mL/mg
  DNCmax: 9.76 ng/mL/mg
  t1/2: 10.0 h
[5]
  CL/F: 23.9 L/h
  Cmax: 289 ng/mL
  DNAUC(0-inf): 41.8 ng·h/mL/mg
  DNCmax: 9.64 ng/mL/mg
  t1/2: 9.98 h
30 mg single oral dose
  Tmax: 0.50 h
[6]
  CL/F: 24.5 L/h
  Cmax: 946 ng/mL
  DNAUC(0-inf): 41.4 ng·h/mL/mg
  DNCmax: 10.5 ng/mL/mg
  t1/2: 10.4 h
[7]
  CL/F: 24.3 L/h
  Cmax: 900 ng/mL
  DNAUC(0-inf): 41.1 ng·h/mL/mg
  DNCmax: 10.0 ng/mL/mg
  t1/2: 10.2 h
90 mg single oral dose
  Tmax: 0.50 h
[8]
  CL/F: 25.4 L/h
  Cmax: 2150 ng/mL
  DNAUC(0-inf): 39.5 ng·h/mL/mg
  DNCmax: 12.0 ng/mL/mg
  t1/2: 8.71 h
[9]
  CL/F: 25.4 L/h
  Cmax: 2060 ng/mL
  DNAUC(0-inf): 39.4 ng·h/mL/mg
  DNCmax: 11.5 ng/mL/mg
  t1/2: 8.66 h
180 mg single oral dose
  Tmax: 0.75 h
[10]
  CL/F: 26.5 L/h
  Cmax: 4570 ng/mL
  DNAUC(0-inf): 38.4 ng·h/mL/mg
  DNCmax: 12.7 ng/mL/mg
  t1/2: 8.14 h
[11]
  CL/F: 26.3 L/h
  Cmax: 4490 ng/mL
  DNAUC(0-inf): 38.1 ng·h/mL/mg
  DNCmax: 12.5 ng/mL/mg
  t1/2: 8.11 h
360 mg single oral dose
  Tmax: 0.50 h
[12]
  CL/F: 22.1 L/h
  Cmax: 9930 ng/mL
  DNAUC(0-inf): 45.7 ng·h/mL/mg
  DNCmax: 13.8 ng/mL/mg
  t1/2: 8.19 h
[13]
  CL/F: 22.0 L/h
  Cmax: 9760 ng/mL
  DNAUC(0-inf): 45.5 ng·h/mL/mg
  DNCmax: 13.6 ng/mL/mg
  t1/2: 8.18 h
720 mg single oral dose
  Tmax: 0.75 h
[14]
  CL/F: 23.6 L/h
  Cmax: 13100 ng/mL
  DNAUC(0-inf): 43.1 ng·h/mL/mg
  DNCmax: 13.1 ng/mL/mg
  t1/2: 8.83 h
[15]
  CL/F: 23.4 L/h
  Cmax: 13000 ng/mL
  DNAUC(0-inf): 42.8 ng·h/mL/mg
  DNCmax: 13.0 ng/mL/mg
  t1/2: 8.58 h
1000 mg single oral dose
  Tmax: 1.00 h
[16]
  AUC(0-t): 56.5 ng·h/mL
  Vd/F: 491 L
[17]
  AUC(0-t): 55.9 ng·h/mL
  Vd/F: 470 L
Both sexes, human, plasma, po, 3 mg, 3 mg single oral dose, Geo Mean, read-out: AUC(0-inf)
  AUC(0-inf): 94.6 ng·h/mL
[18]
  AUC(0-t): 271 ng·h/mL
  Vd/F: 424 L
Both sexes, human, plasma, po, 10 mg, 10 mg single oral dose, Ar Mean, read-out: AUC(0-inf)
  AUC(0-inf): 431 ng·h/mL
[19]
  AUC(0-t): 265 ng·h/mL
  Vd/F: 409 L
Both sexes, human, plasma, po, 10 mg, 10 mg single oral dose, Geo Mean, read-out: AUC(0-inf)
  AUC(0-inf): 420 ng·h/mL
[20]
  AUC(0-t): 901 ng·h/mL
  Vd/F: 349 L
Both sexes, human, plasma, po, 30 mg, 30 mg single oral dose, Ar Mean, read-out: AUC(0-inf)
  AUC(0-inf): 1260 ng·h/mL
[21]
  AUC(0-t): 896 ng·h/mL
  Vd/F: 344 L
Both sexes, human, plasma, po, 30 mg, 30 mg single oral dose, Geo Mean, read-out: AUC(0-inf)
  AUC(0-inf): 1260 ng·h/mL
[22]
  AUC(0-t): 2800 ng·h/mL
  Vd/F: 365 L
Both sexes, human, plasma, po, 90 mg, 90 mg single oral dose, Ar Mean, read-out: AUC(0-inf)
  AUC(0-inf): 3730 ng·h/mL
[23]
  AUC(0-t): 2790 ng·h/mL
  Vd/F: 358 L
Both sexes, human, plasma, po, 90 mg, 90 mg single oral dose, Geo Mean, read-out: AUC(0-inf)
  AUC(0-inf): 3700 ng·h/mL
[24]
  AUC(0-t): 5910 ng·h/mL
  Vd/F: 321 L
Both sexes, human, plasma, po, 180 mg, 180 mg single oral dose, Ar Mean, read-out: AUC(0-inf)
  AUC(0-inf): 7110 ng·h/mL
[25]
  AUC(0-t): 5880 ng·h/mL
  Vd/F: 317 L
Both sexes, human, plasma, po, 180 mg, 180 mg single oral dose, Geo Mean, read-out: AUC(0-inf)
  AUC(0-inf): 7090 ng·h/mL
[26]
  AUC(0-t): 11900 ng·h/mL
  Vd/F: 309 L
Both sexes, human, plasma, po, 360 mg, 360 mg single oral dose, Ar Mean, read-out: AUC(0-inf)
  AUC(0-inf): 13800 ng·h/mL
[27]
  AUC(0-t): 11800 ng·h/mL
  Vd/F: 308 L
Both sexes, human, plasma, po, 360 mg, 360 mg single oral dose, Geo Mean, read-out: AUC(0-inf)
  AUC(0-inf): 13700 ng·h/mL
[28]
  AUC(0-t): 29100 ng·h/mL
  Vd/F: 260 L
Both sexes, human, plasma, po, 720 mg, 720 mg single oral dose, Ar Mean, read-out: AUC(0-inf)
  AUC(0-inf): 32900 ng·h/mL
[29]
  AUC(0-t): 28900 ng·h/mL
  Vd/F: 259 L
Both sexes, human, plasma, po, 720 mg, 720 mg single oral dose, Geo Mean, read-out: AUC(0-inf)
  AUC(0-inf): 32800 ng·h/mL
[30]
  AUC(0-t): 38700 ng·h/mL
  Vd/F: 299 L
Both sexes, human, plasma, po, 1000 mg, 1000 mg single oral dose, Ar Mean, read-out: AUC(0-inf)
  AUC(0-inf): 43100 ng·h/mL
[31]
  AUC(0-t): 38500 ng·h/mL
  Vd/F: 290 L
Both sexes, human, plasma, po, 1000 mg, 1000 mg single oral dose, Geo Mean, read-out: AUC(0-inf)
  AUC(0-inf): 42800 ng·h/mL
